The target of assay [1] is Chloroplast thylakoid membrane protein (psbA) (Chenopodium album) (UniProt Q31945). Description: Selectivity ratio of I50 for photosynthetic electron transport protein complex in atrazine-resistant Chenopodium album thylakoid to I50 for photosynthetic electron transport protein complex in wild type Chenopodium album thylakoid.
Assay [2] addresses Photosystem II protein D1 (Spinacia oleracea, UniProt P69560). Description: Inhibition of photosynthetic electron transport protein complex in Spinacia oleracea (spinach) leaf thylakoid.
Assay [3] is described as follows: Inhibition of photosynthetic electron transport protein complex in Spinacia oleracea (spinach) leaf thylakoid.

Chain of Chloroplast thylakoid membrane protein (psbA) (Chenopodium album) (Q31945 1-69): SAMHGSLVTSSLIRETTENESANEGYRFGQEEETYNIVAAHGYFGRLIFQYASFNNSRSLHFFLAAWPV

For the compound `CCOC(=O)c1nc(C)nc(NCc2ccccc2)n1`, in assay [1], the Selectivity ratio was determined as 0.98. The same compound returned a pI50 in assay [2] of 4.88.
`COC(=O)c1nc(C)nc(NCc2ccccc2)n1` came in with a pI50 in assay [2] of 4.
Regarding `Cc1nc(NCc2ccccc2)nc(C(F)F)n1`, the Selectivity ratio in assay [1] was determined as 2.5. In addition, the pI50 in assay [3] stood at 5.63.
For `Cc1nc(NCc2ccccc2)nc(C(F)(F)F)n1`, in that order: 2.6 and 6.85.
Regarding `Cc1nc(CF)nc(NCc2ccccc2)n1`, the pI50 in assay [3] was 4.98.
On to `CCNc1nc(Cl)nc(NC(C)C)n1` [ATRAZINE], for which the Selectivity ratio in assay [1] was found to be 324. For the same compound, in assay [3], the pI50 came to 6.73.
For `CCOC(=O)c1nc(C)nc(NC(C)C)n1`, the Selectivity ratio in assay [1] was found to be 2.45. This compound also displayed a pI50 in assay [2] of 6.11.
In the case of `C#CCNc1nc(C)nc(C(=O)OCC)n1`, the Selectivity ratio in assay [1] was 1.23.
`CCOC(=O)c1nc(C)nc(NC(C)CC)n1` (centres undefined) came in with a pI50 in assay [2] of 4.37.

The values above are taken from ChEMBL document CHEMBL3045208, “Synthesis and Inhibitory Effect on Photosynthetic Electron Transport of 1,3,5-Triazinylcarboxylic Acid Derivatives” (J Pestic Sci, 2005).
